Reference: US20220282217A1, “COMPOSITIONS AND METHODS FOR PREPARING T CELL COMPOSITIONS AND USES THEREOF” (priority 2019, published 2022)
Like-named read-outs stand apart in the source and are kept apart here. Where a SMILES comes first, the peptide text is derived from it.

Tests used:
[1] = biological target: HLA-A01.01 (Homo sapiens, UniProt P04439, A114D/A174V/A182V/D101N/D185E/E176A/E190D/L180R/Q94H/R68K/S129P/T187R/V100A/V91M/W191G); assay: Class I MHC peptide binding affinity (displacement of radiolabeled reference peptide)
Outline: (§1)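 Displacement format in which varying amounts of peptide compete for 2 days with a radiolabeled reference ligand prebound to class I MHC, residual complex-associated label being measured after gel-filtration separation.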

[2] = biological target: HLA-A02.01 (Homo sapiens, UniProt P04439, D140Y/D185E/D98H/E176V/E277Q/G131W/G231S/I119V/I121R/I166T/I218V/L300P/L318F/N151K/N90K/P208A/P217A/Q86G/Q94H/R138H/R169H/T345S); assay: as above; conditions: for IC50: (nM)), allele A02.01
Outline: as §1

[3] = biological target: T1, HLA-B07.02 (Homo sapiens, UniProt P01889); assay: Class I MHC peptide binding stability (pMHC-I dissociation, 125I-labeled light chain); set-up: made in house; host or cells: E. coli; conditions: Allele B07.02
[4] = biological target: T2, HLA-A02.01 (Homo sapiens, UniProt P04439, D140Y/D185E/D98H/E176V/E277Q/G131W/G231S/I119V/I121R/I166T/I218V/N151K/N90K/P208A/P217A/Q86G/Q94H/R138H/R169H); assay: as above; conditions: allele A02.01
T2 construct: made in house; host or cells: E. coli

[5] = biological target: HLA-A24.02; assay: Class I MHC peptide binding affinity (displacement of radiolabeled reference peptide); set-up: species or system human
[6] = tested on: HLA-A24.02; assay: Class I MHC peptide binding stability (pMHC-I dissociation, 125I-labeled light chain); set-up: species or system human; conditions: for Stability (T1/2 (h)): allele A24.02
[7] = biological target: T1, HLA-B07.02; assay: Class I MHC peptide binding affinity (displacement of radiolabeled reference peptide); conditions: Allele B07.02; read-out: Observed Affinity (IC50; (nM))
[8] = biological target: HLA-A03.01 (Homo sapiens, UniProt P04439); assay: as above; conditions: allele A03.01; read-out: Observed Affinity (IC50; (nM))
[9] = Observed Affinity (IC50, (nM)), allele A01.01
[10] = allele A01.01, read-out: Observed Affinity (IC50, (nM))
[11] = read-out: Observed Affinity (IC50
[12] = allele A24.02, read-out: Observed Affinity (IC50, (nM))

IC50 [1, 10] [nM]	IC50 [2, 11] [nM]	IC50 [5, 12] [nM]	Stability (T1/2 (h)) [6] [h]	Structure (SMILES)	also measured
–	–	–	–	CC[C@H](C)[C@H](NC(=O)[C@H](CC(C)C)NC(=O)[C@H](CCC(N)=O)NC(=O)[C@@H](NC(=O)[C@@H](NC(=O)[C@H](CO)NC(=O)[C@@H](NC(=O)[C@H](CC(C)C)NC(=O)[C@@H](N)CS)[C@@H](C)O)[C@@H](C)O)C(C)C)C(=O)N[C@@H](CCSC)C(=O)O	Kd [1]: 8280 nM; IC50 [1, 9]: 11000 nM; Kd [2]: 537 nM; IC50 ([2]; Observed Affinity (IC50): 716 nM
–	–	–	–	C[C@H](NC(=O)[C@H](CO)NC(=O)[C@H](C)NC(=O)[C@@H]1CCCN1C(=O)[C@H](C)NC(=O)[C@@H]1CCCN1C(=O)[C@H](CCCNC(=N)N)NC(=O)[C@@H]1CCCN1C(=O)[C@@H](N)Cc1c[nH]cn1)C(=O)O	Stability (T1/2 (h)) [3]: 4.9 h
–	–	–	–	CC(C)C[C@H](N)C(=O)N1CCC[C@H]1C(=O)N[C@@H](CCCNC(=N)N)C(=O)N[C@@H](CCCCN)C(=O)N1CCC[C@H]1C(=O)N[C@H](C(=O)N[C@@H](CCCNC(=N)N)C(=O)N[C@@H](C)C(=O)N[C@@H](C)C(=O)O)[C@@H](C)O	Stability (T1/2 (h)) [3]: 5.5 h
–	1040	658	0.8	CC(C)C[C@H](NC(=O)[C@H](CC(C)C)NC(=O)[C@H](CC(C)C)NC(=O)CNC(=O)[C@H](Cc1ccc(O)cc1)NC(=O)[C@H](CC(C)C)NC(=O)[C@@H]1CCCN1C(=O)[C@@H](NC(=O)[C@@H](N)C(C)C)C(C)C)C(=O)O	Stability (T1/2 (h)) [4]: 0.6 h
–	728	16300	0.2	CC(C)C[C@H](NC(=O)[C@H](C)N)C(=O)N[C@@H](CO)C(=O)N[C@@H](C)C(=O)N[C@@H](CO)C(=O)N[C@@H](CC(N)=O)C(=O)N[C@@H](CO)C(=O)N[C@@H](CS)C(=O)N[C@@H](Cc1ccccc1)C(=O)O (H-ALSASNSCF-OH; N-terminus and C-terminus assumed)	IC50 [7]: 684 nM; Stability (T1/2 (h)) [4]: 0.3 h
987	–	–	–	CC(C)C[C@H](NC(=O)[C@H](Cc1ccccc1)NC(=O)[C@H](CO)NC(=O)[C@H](CC(C)C)NC(=O)[C@@H](N)CS)C(=O)N[C@@H](CO)C(=O)N[C@@H](CO)C(=O)N[C@@H](Cc1c[nH]c2ccccc12)C(=O)N[C@@H](CC(=O)O)C(=O)N[C@@H](Cc1ccc(O)cc1)C(=O)O (H-CLSFLSSWDY-OH; N-terminus and C-terminus assumed)	IC50 [8]: 2710 nM
–	–	5	–	CSCC[C@H](NC(=O)[C@H](Cc1ccc(O)cc1)NC(=O)[C@@H](N)CCC(=O)O)C(=O)N[C@@H](C)C(=O)N[C@@H](CC(N)=O)C(=O)NCC(=O)N[C@@H](CO)C(=O)N[C@@H](CC(C)C)C(=O)N[C@@H](CC(C)C)C(=O)O (H-EYMANGSLL-OH; N-terminus and C-terminus assumed)	IC50 ([5]; BTK C481S peptide, HLA Allele A24.02, read-out: Affinity): 4.96 nM; Stability (half-life (hr.)) ([6]; BTK C481S peptide, HLA Allele A24.02): 343 min
–	–	–	–	CC[C@H](C)[C@H](N)C(=O)N[C@@H](CC(C)C)C(=O)N[C@@H](CC(=O)O)C(=O)N[C@H](C(=O)N[C@@H](C)C(=O)NCC(=O)N[C@@H](CCCNC(=N)N)C(=O)N[C@@H](CCC(=O)O)C(=O)N[C@@H](CCC(=O)O)C(=O)N[C@@H](Cc1ccc(O)cc1)C(=O)O)[C@@H](C)O (H-ILDTAGREEY-OH; N-terminus and C-terminus assumed)	IC50 [1, 9]: 7 nM
52.9	–	–	–	CC(C)C[C@H](NC(=O)[C@H](Cc1ccccc1)NC(=O)[C@H](CO)NC(=O)[C@@H](N)CC(C)C)C(=O)N[C@@H](CO)C(=O)N[C@@H](CO)C(=O)N[C@@H](Cc1c[nH]c2ccccc12)C(=O)N[C@@H](CC(=O)O)C(=O)N[C@@H](Cc1ccc(O)cc1)C(=O)O (H-LSFLSSWDY-OH; N-terminus and C-terminus assumed)	–
–	–	–	–	CC[C@H](C)[C@H](NC(=O)[C@H](CCCCN)NC(=O)[C@H](Cc1ccc(O)cc1)NC(=O)[C@@H](NC(=O)[C@@H](NC(=O)[C@H](CC(=O)O)NC(=O)[C@H](CO)NC(=O)[C@@H](N)CCSC)[C@@H](C)O)[C@@H](C)O)C(=O)N[C@@H](Cc1ccc(O)cc1)C(=O)O (H-MSDTTYKIY-OH; N-terminus and C-terminus assumed)	IC50 [1]: 10.2 nM
–	797	444	6.3	CSCC[C@H](NC(=O)[C@H](CCC(=O)O)NC(=O)[C@H](CC(C)C)NC(=O)[C@H](CC(C)C)NC(=O)[C@H](CC(C)C)NC(=O)CNC(=O)[C@H](Cc1ccc(O)cc1)NC(=O)[C@H](CC(C)C)NC(=O)[C@@H]1CCCN1)C(=O)N[C@@H](CC(C)C)C(=O)O (H-PLYGLLLEML-OH; N-terminus and C-terminus assumed)	–
15500	–	–	–	CC(C)[C@H](NC(=O)[C@H](CCC(=O)O)NC(=O)[C@H](CC(N)=O)NC(=O)[C@H](CO)NC(=O)CNC(=O)[C@@H](N)[C@@H](C)O)C(=O)N[C@H](C(=O)N[C@H](C(=O)N[C@@H](CCCNC(=N)N)C(=O)N[C@@H](Cc1ccc(O)cc1)C(=O)O)[C@@H](C)O)[C@@H](C)O (H-TGSNEVTTRY-OH; N-terminus and C-terminus assumed)	–
4.4	–	–	–	C[C@H](NC(=O)[C@H](CC(N)=O)NC(=O)[C@@H](NC(=O)[C@@H](N)[C@@H](C)O)[C@@H](C)O)C(=O)N[C@@H](Cc1ccccc1)C(=O)N[C@@H](CO)C(=O)NCC(=O)N[C@@H](CCC(=O)O)C(=O)N[C@@H](Cc1ccc(O)cc1)C(=O)O (H-TTNAFSGEY-OH; N-terminus and C-terminus assumed)	–
–	–	–	–	CC[C@H](C)[C@H](NC(=O)[C@H](CCCCN)NC(=O)[C@H](Cc1ccc(O)cc1)NC(=O)[C@@H](NC(=O)[C@@H](NC(=O)[C@H](CC(=O)O)NC(=O)[C@H](CO)NC(=O)[C@H](CCSC)NC(=O)[C@@H](N)C(C)C)[C@@H](C)O)[C@@H](C)O)C(=O)N[C@@H](Cc1ccc(O)cc1)C(=O)O (H-VMSDTTYKIY-OH; N-terminus and C-terminus assumed)	IC50 [1]: 376 nM
–	1200	3890	0.4	CC(C)C[C@H](NC(=O)[C@H](CC(C)C)NC(=O)[C@H](CC(C)C)NC(=O)[C@H](CC(=O)O)NC(=O)[C@H](CS)NC(=O)[C@H](CC(C)C)NC(=O)[C@@H]1CCCN1C(=O)[C@@H](NC(=O)[C@@H](N)C(C)C)C(C)C)C(=O)O (H-VVPLCDLLL-OH; N-terminus and C-terminus assumed)	–
–	2550	8250	0.5	CC(C)C[C@H](NC(=O)[C@H](CC(C)C)NC(=O)[C@H](CC(C)C)NC(=O)[C@H](CC(=O)O)NC(=O)[C@H](CO)NC(=O)[C@H](CC(C)C)NC(=O)[C@@H]1CCCN1C(=O)[C@@H](NC(=O)[C@@H](N)C(C)C)C(C)C)C(=O)O (H-VVPLSDLLL-OH; N-terminus and C-terminus assumed)	–
14400	40	–	–	CC[C@H](C)[C@H](NC(=O)[C@H](CC(=O)O)NC(=O)[C@H](Cc1ccccc1)NC(=O)[C@H](CC(C)C)NC(=O)[C@@H](NC(=O)[C@H](CCC(=O)O)NC(=O)[C@@H](NC(=O)[C@H](CCSC)NC(=O)[C@@H](N)Cc1c[nH]c2ccccc12)[C@@H](C)O)[C@@H](C)O)C(=O)N[C@H](C(=O)O)C(C)C (H-WMTETLFDIV-OH; N-terminus and C-terminus assumed)	Stability (T1/2 (h)) [4]: 0.4 h
10.5	–	–	–	C[C@H](NC(=O)[C@H](CC(N)=O)NC(=O)[C@@H](NC(=O)[C@@H](NC(=O)[C@@H](N)Cc1ccc(O)cc1)[C@@H](C)O)[C@@H](C)O)C(=O)N[C@@H](Cc1ccccc1)C(=O)N[C@@H](CO)C(=O)NCC(=O)N[C@@H](CCC(=O)O)C(=O)N[C@@H](Cc1ccc(O)cc1)C(=O)O (H-YTTNAFSGEY-OH; N-terminus and C-terminus assumed)	–

Structure (SMILES)	IC50 [1, 10] [nM]	IC50 [2, 11] [nM]	IC50 [5, 12] [nM]	Stability (T1/2 (h)) [6] [h]	also measured
CC[C@H](C)[C@H](NC(=O)[C@@H]1CCCN1C(=O)[C@H](CC(C)C)NC(=O)[C@H](Cc1ccccc1)NC(=O)[C@H](CC(C)C)NC(=O)[C@H](CO)NC(=O)[C@H](CC(=O)O)NC(=O)[C@@H](NC(=O)[C@H](CC(C)C)NC(=O)[C@@H](N)CCSC)[C@@H](C)O)C(=O)O	7670	–	–	–	Stability (T1/2 (h)) [4]: 1 h
CC[C@H](C)[C@H](NC(=O)[C@H](CO)NC(=O)[C@H](Cc1c[nH]c2ccccc12)NC(=O)[C@H](Cc1c[nH]cn1)NC(=O)[C@H](C)NC(=O)[C@@H]1CCCN1C(=O)[C@H](CCSC)NC(=O)[C@H](CC(C)C)NC(=O)[C@@H](N)CO)C(=O)O	–	48	633	0.4	Stability (T1/2 (h)) [4]: 5 h
CC[C@H](C)[C@H](NC(=O)[C@@H](NC(=O)[C@H](CC(C)C)NC(=O)[C@@H](NC(=O)[C@@H]1CCCN1C(=O)[C@H](CCCNC(=N)N)NC(=O)[C@H](Cc1c[nH]c2ccccc12)NC(=O)[C@H](CC(N)=O)NC(=O)[C@@H](N)CCSC)[C@@H](C)CC)[C@@H](C)O)C(=O)O (H-MNWRPILTI-OH; N-terminus and C-terminus assumed)	–	516	6980	0.2	Stability (T1/2 (h)) [4]: 3.8 h
